Reference: patent publication US20250353873A1, “COMPOUNDS AND METHODS FOR MODULATING APOE EXPRESSION” (Ionis Pharmaceuticals, Inc., priority 2024, published 2025)
“And” between values parts separate entries of the source, which are not always exact repeats. Equal entries are not always repeated. Marks after values point to notes of the source that are not given here. Strand notation (5' to 3'): a small letter for the sugar, then the base; units joined by * are phosphorothioate-linked, units joined directly phosphodiester-linked; [ ] holds rarer units or linkages, { } end groups; capitals alone tell only the bases. [ms] = mesyl phosphoramidate linkage; e = 2'-O-(2-methoxyethyl) (MOE); k = constrained ethyl (cEt); [5mC] = 5-methylcytosine; d = 2'-deoxy (DNA)

Tests used:
human APOE RNA [1] = test: Duration of action study in APOE C57BL/6NTac-Apoeem7250 knock-in mice (Example 16); format: in vivo; conditions: 300 μg ICV
Outline: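 Knock-in mice (2-4 per group) received a single ICV bolus of 300 μg oligonucleotide or PBS. At various timepoints, cortex and spinal cord human APOE RNA was measured by RT-qPCR (RTS3073), normalized to mouse Ppia and expressed as % of PBS control.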

human APOE RNA [2] = test: Potency (dose response, ED50) in APOE C57BL/6NTac-Apoeem7250 knock-in mice, 8 weeks (Example 15); format: in vivo; conditions: for ED 50 (μg) Cortex / ED 50 (μg) Spinal Cord: single ICV bolus, GraphPad Prism 10
Experimental: Modified oligonucleotides described above were tested in the APOE C57BL/6NTac-Apoeem7250 knock-in mouse model described above.
APOE C57BL/6NTac-Apoeem7250 knock-in mice were divided into groups of 3-4 mice each. A group of 4 mice received a single ICV bolus with PBS as a negative control.
Eight weeks post treatment, mice were sacrificed, and RNA was extracted from cortical brain tissue and spinal cord for quantitative real-time RT-PCR analysis of RNA expression of […] using human primer probe set RTS3073 (described herein above). APOE RNA levels were normalized to mouse Ppia. Mouse Ppia was amplified using primer probe set m_cyclo24 (described herein above). Results are presented as percent human APOE RNA relative to the amount of APOE RNA in PBS treated animals, (% control). N.C. indicates values that were not calculated.
The half maximal effective dose (ED50) of each modified oligonucleotide was calculated using GraphPad Prism 10 software (GraphPad Software, San Diego, CA).

human APOE RNA [3] = test: Duration of action study in APOE C57BL/6NTac-Apoeem7250 knock-in mice (Example 18); format: in vivo
Experimental: Modified oligonucleotides described above were tested in the APOE C57BL/6NTac-Apoeem7250 knock-in model (described above).
Each mouse received a single intracerebroventricular (ICV) bolus of 300 μg of modified oligonucleotide. A group of 4-6 mice received a single ICV bolus with PBS as a negative control.
Mice were sacrificed at various timepoints as indicated in the table below and RNA was extracted from cortical brain tissue and spinal cord for quantitative real-time RT-PCR analysis of RNA expression of APOE using primer probe set RTS3073 (described herein above). APOE RNA levels were normalized to mouse Ppia. Mouse Ppia was amplified using primer probe set m_cyclo24 (described herein above). Results are presented as percent human APOE RNA relative to the amount of human APOE RNA in PBS treated animals, (% control). Each experiment is identified in separate tables below.

human APOE RNA [4] = test: Activity in APOE C57BL/6NTac-Apoeem7250 knock-in mice, single ICV bolus, 16 weeks (Example 12); format: in vivo; conditions: single ICV bolus 300 μg, 16 weeks post treatment, normalized to mouse Ppia
Outline: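 Knock-in mice (3-4 per group) received one ICV bolus of 300 μg oligonucleotide, PBS as control. After 16 weeks, human APOE RNA in cortex and spinal cord measured by RT-qPCR, normalized to mouse Ppia, and reported as % of PBS control.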

human APOE RNA [5] = test: Dose-dependent inhibition of human APOE RNA in HepG2 cells, electroporation, 50,000 cells per well, RT-PCR normalized to GAPDH (Example 4, Tables 8-10); format: cell-based; conditions: HepG2 cells, electroporation, Table 8
Outline: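 HepG2 cells, 50,000 per well, electroporated with modified oligonucleotide at various concentrations. APOE RNA quantified by RT-PCR with human primer probe set RTS3073, normalized to GAPDH. Values are percent APOE RNA relative to untreated control cells.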

human APOE RNA [6] = test: Activity in APOE C57BL/6NTac-Apoeem7250 knock-in mice, single ICV bolus, 20 weeks (Example 13); format: in vivo; conditions: single ICV bolus 300 μg, 20 weeks post treatment, normalized to mouse Ppia
Outline: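 Knock-in mice (n=4) given a single ICV bolus of 300 μg oligonucleotide, PBS as control. After 20 weeks, human APOE RNA in cortex and spinal cord measured by RT-qPCR, normalized to mouse Ppia, expressed as % of PBS-treated animals.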

[7] = 196 days post-dose, single ICV bolus 300 μg, APOE knock-in mice, normalized to mouse Ppia, relative to PBS
[8] = 224 days post-dose, single ICV bolus 300 μg, APOE knock-in mice, normalized to mouse Ppia, relative to PBS
[9] = 285 days post-dose, single ICV bolus 300 μg, APOE knock-in mice, normalized to mouse Ppia, relative to PBS

Row | Substance | APOE RNA (% control) Cortex (human APOE RNA [1]; 7 days post-dose) [% control] | APOE RNA (% control) Cortex (human APOE RNA [1]; 14 days post-dose) [% control] | APOE RNA (% control) Spinal Cord (human APOE RNA [1]; 7 days post-dose) [% control] | APOE RNA (% control) Spinal Cord (human APOE RNA [1]; 14 days post-dose) [% control] | APOE RNA (% control) Cortex (human APOE RNA [2]; ICV dose 10 μg) [% control] | APOE RNA (% control) Cortex (human APOE RNA [2]; ICV dose 30 μg) [% control] | APOE RNA (% control) Cortex (human APOE RNA [2]; ICV dose 100 μg) [% control] | APOE RNA (% control) Cortex (human APOE RNA [2]; ICV dose 300 μg) [% control] | APOE RNA (% control) Cortex (human APOE RNA [2]; ICV dose 700 μg) [% control] | ED 50 (μg) Cortex (human APOE RNA [2]) [µg] | APOE RNA (% control) Spinal Cord (human APOE RNA [2]; ICV dose 10 μg) [% control] | APOE RNA (% control) Spinal Cord (human APOE RNA [2]; ICV dose 30 μg) [% control] | APOE RNA (% control) Spinal Cord (human APOE RNA [2]; ICV dose 100 μg) [% control] | APOE RNA (% control) Spinal Cord (human APOE RNA [2]; ICV dose 300 μg) [% control] | APOE RNA (% control) Spinal Cord (human APOE RNA [2]; ICV dose 700 μg) [% control] | ED 50 (μg) Spinal Cord (human APOE RNA [2]) [µg] | APOE RNA (% control) Cortex (human APOE RNA [3]; 300 μg ICV, 28 days post-dose) | APOE RNA (% control) Cortex (human APOE RNA [3]; 300 μg ICV, 112 days post-dose) | APOE RNA (% control) Cortex (human APOE RNA [3]; 300 μg ICV, 140 days post-dose) | APOE RNA (% control) Cortex (human APOE RNA [3]; [7]) [% control] | also measured
1 | TezTeoGeoGksTdsGdzAdzAdzTds^mCdsTdsTdsTdsAdzTksTksAesAesAes^mCe (antisense eT[ms]eTeGkG*dT*dG[ms]dA[ms]dA[ms]dT*d[5mC]*dT*dT*dT*dA[ms]kT*kT*eA*eA*eA*e[5mC]) [Compound No. 1809814] | 62 | 57 | 84 | 53 | 97 | 85 | 72 | 47 | 37 | 309.5 | 81 | 60 | 45 | 29 | 28 | 78.7 | 55 % control | 57 % control | 71 % control | 68 | APOE RNA (% control) Cortex (human APOE RNA [3]; [8]): 90 % control; APOE RNA (% control) Cortex (human APOE RNA [3]; [9]): 95 % control; APOE RNA (% control) Spinal Cord (human APOE RNA [3]; 300 μg ICV, 28 days post-dose): 52 % control; APOE RNA (% control) Spinal Cord (human APOE RNA [3]; 300 μg ICV, 112 days post-dose): 39 % control; APOE RNA (% control) Spinal Cord (human APOE RNA [3]; 300 μg ICV, 140 days post-dose): 43 % control; APOE RNA (% control) Spinal Cord (human APOE RNA [3]; [7]): 57 % control; APOE RNA (% control) Spinal Cord (human APOE RNA [3]; [8]): 54 % control; APOE RNA (% control) Spinal Cord (human APOE RNA [3]; [9]): 84 % control
2 | 1785599: modified oligonucleotide complementary to human APOE RNA (k[5mC]*kT*kT*dG[ms]dG[ms]dT[ms]dG[ms]dA[ms]dA[ms]dT[ms]d[5mC]*dT*dT*dT*dA*dT*kT*kA*dA[ms]kA; antisense) [compound 1785599] | – | – | – | – | 94 | 72 | 56 | 37 | 25 | 143.3 | 54 | 38 | 16 | 13 | 12 | 12.18 | – | – | – | – | APOE RNA (% control) Cortex (human APOE RNA [4]; cortex): 35 % control; APOE RNA (% control) Spinal Cord (human APOE RNA [4]; spinal cord): 54 % control; APOE RNA (% UTC) 5 nM (human APOE RNA [5]; 24-hour treatment, 5 nM): 116 % UTC; APOE RNA (% UTC) 13 nM (human APOE RNA [5]; 24-hour treatment, 13 nM): 116 % UTC; APOE RNA (% UTC) 33 nM (human APOE RNA [5]; 24-hour treatment, 33 nM): 100 % UTC; APOE RNA (% UTC) 82 nM (human APOE RNA [5]; 24-hour treatment, 82 nM): 87 % UTC; APOE RNA (% UTC) 205 nM (human APOE RNA [5]; 24-hour treatment, 205 nM): 65 % UTC; APOE RNA (% UTC) 512 nM (human APOE RNA [5]; 24-hour treatment, 512 nM): 48 % UTC; APOE RNA (% UTC) 1,280 nM (human APOE RNA [5]; 24-hour treatment, 1,280 nM): 43 % UTC; APOE RNA (% UTC) 3,200 nM (human APOE RNA [5]; 24-hour treatment, 3,200 nM): 21 % UTC; APOE RNA (% UTC) 8,000 nM (human APOE RNA [5]; 24-hour treatment, 8,000 nM): 9 % UTC; APOE RNA (% UTC) 20,000 nM (human APOE RNA [5]; 24-hour treatment, 20,000 nM): 2 % UTC; IC50 (human APOE RNA [5]; reduction of human APOE RNA, 24-hour treatment): 0.64 µM; APOE RNA (% control) Cortex (human APOE RNA [6]; cortex): 55 % control; APOE RNA (% control) Spinal Cord (human APOE RNA [6]; spinal cord): 20 % control
3 | Aks^mCeoTeoTesGesGksTdsGdzAdzAdzTds^mCdsTdsTdsTdsAdzTksTksAesAe (kA*e[5mC]eTeT*eG*kG*dT*dG[ms]dA[ms]dA[ms]dT*d[5mC]*dT*dT*dT*dA[ms]kT*kT*eA*eA) [Compound No. 1809635] | 40 | 30 | 44 | 27 | 95 | 84 | 62 | 30 | 16 | 146.7 | 51 | 27 | 13 | 13 | 18 | – | 29 % control and 25 % control | 24 % control and 35 % control | 52‡ % control | 50 | APOE RNA (% control) Cortex (human APOE RNA [3]; 300 μg ICV, 56 days post-dose): 19 % control; APOE RNA (% control) Cortex (human APOE RNA [3]; 300 μg ICV, 168 days post-dose): 35 % control; APOE RNA (% control) Cortex (human APOE RNA [3]; 300 μg ICV, 342 days post-dose): 68 % control; APOE RNA (% control) Cortex (human APOE RNA [3]; [8]): 55 % control; APOE RNA (% control) Cortex (human APOE RNA [3]; [9]): 67 % control; APOE RNA (% control) Spinal Cord (human APOE RNA [3]; 300 μg ICV, 28 days post-dose): 11 % control and 18 % control; APOE RNA (% control) Spinal Cord (human APOE RNA [3]; 300 μg ICV, 56 days post-dose): 11 % control; APOE RNA (% control) Spinal Cord (human APOE RNA [3]; 300 μg ICV, 112 days post-dose): 13 % control and 14 % control; APOE RNA (% control) Spinal Cord (human APOE RNA [3]; 300 μg ICV, 140 days post-dose): 27‡ % control; APOE RNA (% control) Spinal Cord (human APOE RNA [3]; 300 μg ICV, 168 days post-dose): 26 % control; APOE RNA (% control) Spinal Cord (human APOE RNA [3]; 300 μg ICV, 342 days post-dose): 36 % control; APOE RNA (% control) Spinal Cord (human APOE RNA [3]; [7]): 33 % control; APOE RNA (% control) Spinal Cord (human APOE RNA [3]; [8]): 26 % control; APOE RNA (% control) Spinal Cord (human APOE RNA [3]; [9]): 41 % control
